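Interpolation was linear, between the two tested concentrations surrounding the appropriate level; five concentrations were tested over 48 hours in 96-well plates. TGI: total growth inhibition.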
How the values were obtained:
Experiment in all cases: growth of human tumour cells (NCI), 48 h
SNB-75 CNS = tested on: SNB-75 CNS
EKVX NSCLC = tested on: EKVX NSCLC
ACHN renal = tested on: ACHN renal
MDA-MB-231 breast = tested on: MDA-MB-231 breast
MALME-3M melanoma = tested on: MALME-3M melanoma
K-562 leukemia = tested on: K-562 leukemia
OVCAR-4 ovarian = tested on: OVCAR-4 ovarian
SK-MEL-5 melanoma = tested on: SK-MEL-5 melanoma
SF-268 CNS = tested on: SF-268 CNS
SF-295 CNS = tested on: SF-295 CNS
CAKI-1 renal = tested on: CAKI-1 renal
SNB-19 CNS = tested on: SNB-19 CNS
BT-549 breast = tested on: BT-549 breast
SK-MEL-2 melanoma = tested on: SK-MEL-2 melanoma
LOX IMVI melanoma = tested on: LOX IMVI melanoma
HCT-15 colon = tested on: HCT-15 colon
NCI-H23 lung = tested on: NCI-H23 lung
HOP-62 NSCLC = tested on: HOP-62 NSCLC
UACC-257 melanoma = tested on: UACC-257 melanoma
NCI/ADR-RES ovarian = tested on: NCI/ADR-RES ovarian

Structure (SMILES) | TGI (SNB-75 CNS) [µM] | TGI (EKVX NSCLC) [µM] | TGI (ACHN renal) [µM] | TGI (MDA-MB-231 breast) [µM] | TGI (MALME-3M melanoma) [µM] | TGI (K-562 leukemia) [µM] | TGI (OVCAR-4 ovarian) [µM] | TGI (SK-MEL-5 melanoma) [µM] | TGI (SF-268 CNS) [µM] | TGI (SF-295 CNS) [µM] | TGI (CAKI-1 renal) [µM] | TGI (SNB-19 CNS) [µM] | TGI (BT-549 breast) [µM] | TGI (SK-MEL-2 melanoma) [µM] | TGI (LOX IMVI melanoma) [µM] | TGI (HCT-15 colon) [µM] | TGI (NCI-H23 lung) [µM] | TGI (HOP-62 NSCLC) [µM] | TGI (UACC-257 melanoma) [µM] | TGI (NCI/ADR-RES ovarian) [µM]
Brc1ccc2[nH]cc(-c3csc(-c4ccccn4)n3)c2c1 | 36.4 | 48.2 | 23.7 | > 75.4 | 65.2 | > 100 | > 92.8 | 55.9 | > 59.7 | > 26.4 | > 94.9 | > 100 | > 100 | > 100 | 33.2 | > 100 | > 100 | > 45.5 | > 85.2 | > 100
Cc1c(NC(=S)NN)c(=O)n(-c2ccccc2)n1C | > 100 | > 100 | – | > 100 | > 100 | > 100 | > 100 | > 100 | > 100 | > 100 | > 100 | > 100 | > 100 | > 100 | > 100 | > 100 | – | > 100 | > 100 | > 100
CCC(C#N)(c1ccccc1)N(CCc1ccccc1)C(=O)c1ccccc1 (stereo unspecified) | 78.7 | > 100 | > 100 | 52.2 | > 100 | > 100 | 44 | > 100 | > 100 | > 100 | > 100 | > 100 | > 100 | > 100 | > 100 | > 100 | > 100 | 50.8 | > 100 | > 100
CC(=N\N)/C(C)=N/N=C(C)/C(C)=N/N=C(C)/C(C)=N/N=C(C)/C(C)=N/N | > 100 | > 100 | – | > 100 | > 100 | > 100 | > 100 | > 100 | > 100 | > 100 | > 100 | > 100 | > 100 | > 100 | > 100 | > 100 | > 100 | > 100 | > 100 | > 100
Cc1ccc(-c2nc(C)c(C(=O)Nc3ccc(Cl)cc3)s2)cc1 | 28.3 | > 100 | 42 | 75.6 | > 100 | > 100 | 49.2 | 41.7 | 91.8 | 33.7 | 40.8 | 43.2 | 78.2 | > 100 | > 100 | > 100 | 83.6 | 26.2 | > 100 | > 100
O=P1(C(O)/C=C/c2ccccc2)N(Cc2ccccc2)[C@H](c2ccccc2)[C@@H](c2ccccc2)N1Cc1ccccc1 (stereo partly specified) | > 83.6 | > 96.1 | > 95.4 | 69.7 | 99.7 | > 80.6 | > 100 | 41.2 | > 100 | > 64.4 | 99.7 | > 100 | > 89.4 | 41.5 | > 72.5 | > 85.3 | > 59.2 | > 93.3 | 57.6 | > 100
O=C(/C=C1\N=C(c2ccccc2)N(c2nc3ccc(Sc4ccccc4)cc3[nH]2)C1=O)/C=C/c1ccccc1 | 55.9 | > 100 | > 100 | 53.8 | > 100 | > 100 | > 100 | 61.3 | > 100 | > 100 | > 100 | > 100 | > 100 | 41.5 | > 100 | > 100 | > 100 | > 100 | > 100 | 67.9
COc1ccc(/C=C2\CCCC(CN(C)C)C2=O)cc1 (stereo unspecified) | 21.6 | 24.8 | 5.86 | 8.61 | 6.95 | 6.79 | 4.43 | 28.8 | 11 | 36.8 | 3.15 | 18 | 3.9 | 11 | 4 | 1.7 | 13.9 | 35.7 | 8.96 | 6.56
CC1(C)[C@H](C(=O)O)N2C(=O)[C@@H](NS(=O)(=O)c3ccc([N+](=O)[O-])cc3)[C@H]2S1(=O)=O | > 100 | > 100 | > 100 | > 100 | > 100 | > 100 | > 100 | > 100 | > 100 | > 100 | > 100 | > 100 | > 100 | > 100 | > 100 | > 100 | > 100 | > 100 | > 100 | > 100
N#Cc1c(N2CCCC2)nsc1NCc1ccccc1 | > 100 | > 100 | > 100 | > 100 | > 100 | > 100 | > 100 | > 100 | > 100 | > 100 | > 100 | > 100 | > 100 | > 100 | > 100 | > 100 | > 100 | > 100 | > 100 | > 100
CCOC(=O)c1c2c3c(cccc3[nH]c1=O)Sc1ncccc1-2 | > 100 | > 100 | > 100 | > 100 | > 100 | > 100 | > 100 | 24 | > 100 | 95.3 | 70.7 | > 100 | > 100 | > 100 | > 100 | > 100 | 86.3 | > 100 | > 100 | > 100
CC1(C)CC(=O)C(CCC(=O)/C=C/c2ccccc2)C(=O)C1 | > 100 | > 100 | > 100 | > 100 | > 100 | > 100 | > 100 | > 100 | > 100 | > 100 | > 100 | > 100 | > 100 | > 100 | > 100 | > 100 | > 100 | > 100 | > 100 | > 100
CC(=O)OC1=c2ccccc2=C(O)C2C1C=NN2C(C)=O (stereo unspecified) | > 100 | > 100 | > 100 | > 100 | > 100 | > 100 | > 100 | > 100 | > 100 | > 100 | > 100 | > 100 | > 100 | > 100 | > 100 | > 100 | > 100 | > 100 | > 100 | > 100
Cc1c(C#N)c2nnn(-c3ccc(Cl)cc3)c(=O)n2c1-c1ccccc1 | 39.7 | 31.3 | 83.4 | 0.987 | 34.4 | 20.1 | > 59.3 | 1.3 | 14.8 | 1.03 | > 52.3 | > 40.5 | 24.9 | 2.99 | 12.9 | 11.9 | 19.8 | 3.73 | 33.6 | 16
CN(C)c1ccc(/C=c2/c3ccccc3n3c2c2ccccc2[n+]3C)cc1 | 8.29 | 23.5 | 2.88 | 2.42 | 1.47 | 4.71 | 8.3 | 0.659 | 1.98 | 13.1 | 8.53 | 4.76 | 1.03 | 0.782 | 1.98 | 2.41 | 3.45 | 16.2 | 1.51 | 32.8
O=C(CN1CCN(Cc2ccccc2)CC1)c1ccc2[nH]c(=O)oc2c1 | > 100 | > 100 | > 100 | > 100 | 51.2 | > 100 | > 100 | > 100 | > 100 | > 100 | > 100 | > 100 | > 100 | > 100 | > 100 | > 100 | > 100 | > 100 | > 100 | > 100
C=CCN1CCC(OC(=O)C(O)(C#CC)C2CCCC2)CC1 (stereo unspecified) | > 100 | > 100 | > 100 | > 100 | > 100 | > 100 | > 100 | > 100 | > 100 | > 100 | > 100 | > 100 | > 100 | > 100 | > 100 | > 100 | > 100 | > 100 | > 100 | > 100
CO/N=C(\C)c1ccc(Nc2c3ccccc3nc3occc23)cc1 | 3.29 | 39.9 | 35.2 | 10.2 | 0.895 | 37.3 | 7.58 | 6.53 | 18.6 | 1.98 | 7.15 | 45.1 | 21.3 | 1.94 | 18.2 | 13.1 | 26.4 | 16.2 | 44.1 | 4.75
O=C1/C(=C/c2ccccc2)CCCC1CN1CCCCC1 (stereo unspecified) | 20.5 | 28.8 | 11.8 | 3.89 | 3.97 | – | 3.83 | 15.6 | 3.59 | 33.6 | 3.2 | 29.1 | 8.91 | 15.8 | 3.3 | 4.85 | 16.7 | 35.5 | 22 | 13
O=C(OCc1ccccc1CN1CCOCC1)c1cccc(Br)c1 | > 100 | > 100 | > 100 | > 100 | 45 | > 100 | 70 | 33.3 | > 100 | – | 64.6 | > 100 | > 100 | 52.9 | > 100 | > 100 | 80 | > 100 | 63.4 | 79.8
COc1cc(Cc2cc3c(c(C(=O)O)c2Br)OCO3)cc(OC)c1OC | > 100 | > 100 | > 100 | > 100 | > 100 | > 100 | > 100 | > 100 | – | > 100 | > 100 | > 100 | > 100 | > 100 | > 100 | > 100 | > 100 | > 100 | > 100 | > 100
CC1=NCCN=C(C)C1N=Nc1ccc2nc(C)[nH]c2c1 | 33.1 | 39.6 | 32.1 | 31.2 | 41.5 | 20.1 | 30.6 | – | 46.4 | 31.5 | 36 | 28.7 | 28.2 | 46.3 | 98.8 | > 100 | 44.2 | 61.1 | 28.6 | 47.9
COc1cc(C=O)ccc1Oc1nnnn1-c1ccccc1 | > 100 | > 100 | – | > 100 | > 100 | > 100 | > 100 | 59.2 | > 100 | > 100 | 85.3 | > 100 | > 100 | > 100 | > 100 | > 100 | > 100 | > 100 | > 100 | > 100
NC(Cc1ccc(S(=O)(=O)O)cc1)C(=O)NC(CCCCNC(=O)NCCCCC(NC(=O)C(N)Cc1ccc(S(=O)(=O)O)cc1)C(=O)NC(Cc1ccc(S(=O)(=O)O)cc1)C(=O)O)C(=O)NC(Cc1ccc(S(=O)(=O)O)cc1)C(=O)O (stereo unspecified) | > 100 | > 100 | > 100 | > 100 | > 100 | > 100 | > 100 | > 100 | > 100 | > 100 | > 100 | – | > 100 | > 100 | > 100 | > 100 | > 100 | > 100 | > 100 | > 100
